Results on 20 compounds are retold here after patent US20250136586A1, “Substituted 7-(Pyrimidin-4-yl)Quinolin-4(1H)-One Compounds as Cyclin Dependent Kinase Inhibitors” (BeiGene, Ltd., priority 2022, published 2025).

The target of one assay is CDK6/Cyclin D3 (Homo sapiens (Human), UniProt Q00534). As to the kind of experiment: TR-FRET kinase inhibition assay, CDK6/Cyclin D3. Type of assay: biochemical. Conditions: 1 mM ATP, 0.15 μM Rb (Ser780)-biotin substrate, read-out: CDK6D3 IC50. As for the experimental part: (§1) Compounds disclosed herein were tested for inhibition of CDK4/Cyclin D1 or CDK6/Cyclin D3 kinase in an assay based on the time-resolved fluorescence-resonance energy transfer (TR-FRET) methodology. The assay was carried out in 384-well low volume black plates in a reaction mixture containing CDK4/Cyclin D1 or CDK6/Cyclin D3, 1 mM ATP, 0.15 μM Rb (Ser780)-biotin substrate and 0-10 μM compound in buffer containing 50 mM HEPES pH7.0, 0.02% NaN3, 0.01% BSA, 0.1 mM Orthovanadate, 50 mM MgCl2, 1 mM DTT and 0.005% Tween-20. The kinase was incubated with compound for 60 minutes at room temperature and the reaction was initiated by the addition of ATP and Rb (Ser780)-biotin substrate. After reaction at room temperature for 120 minutes, an equal volume of stop/detection solution was added according to the manufacture's instruction (Cisbio Bioassays). The stop/detection solution contained Streptavidin-XL665 and Anti-pRb (Ser780) mAb-Eu Cryptate in Detection buffer (Cisbio Bioassays). Plates were incubated at room temperature for 60 minutes, and the TR-FRET signals (ex337 nm, em665 nm/620 nm) were recorded on a PHERAstar FSX plate reader (BMG Labtech). The inhibition percentage of CDK4/Cyclin D1 or CDK6/Cyclin D3 kinase activity in presence of increasing concentrations of compounds was calculated based on the ratio of fluorescence at 665 nm to that at 620 nm. The IC50 for each compound was derived from fitting the data to the four-parameter logistic equation by Dotmatics.
Background: Time-resolved FRET reads energy transfer from a long-lived donor to a nearby acceptor.

Another assay deals with CDK4/Cyclin D1 (Homo sapiens (Human), UniProt P11802). The assay is described as follows: TR-FRET kinase inhibition assay, CDK4/Cyclin D1. The class given is biochemical. The following applies: 1 mM ATP, 0.15 μM Rb (Ser780)-biotin substrate, read-out: CDK4D1 IC50. As for the experimental part: as §1, with “The assay was carried out in 384-well low volume black plates in a reaction mixture containing CDK4/Cyclin D1 or CDK6/Cyclin D3, 1 mM ATP, 0.15 μM Rb (Ser780)-biotin substrate and 0-10 μM compound in buffer containing 50 mM HEPES pH7.0, 0.02% NaN3, 0.01% BSA, 0.1 mM Orthovanadate, 50 mM MgCl2, 1 mM DTT and 0.005% Tween-20.” left out, “Plates were incubated at room temperature for 60 minutes, and the TR-FRET signals (ex337 nm, em665 nm/620 nm) were recorded on a PHERAstar FSX plate reader (BMG Labtech).” left out
Chain of CDK4/Cyclin D1 (P11802 whole entry): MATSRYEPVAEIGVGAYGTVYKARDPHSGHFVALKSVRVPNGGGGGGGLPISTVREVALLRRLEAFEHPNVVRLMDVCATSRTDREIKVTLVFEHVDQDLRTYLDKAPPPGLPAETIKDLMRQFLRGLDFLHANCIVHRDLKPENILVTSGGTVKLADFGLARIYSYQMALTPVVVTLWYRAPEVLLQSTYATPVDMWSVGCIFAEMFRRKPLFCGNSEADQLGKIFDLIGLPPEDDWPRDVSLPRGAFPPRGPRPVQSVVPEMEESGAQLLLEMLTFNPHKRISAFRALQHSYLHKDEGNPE
Chain of CDK4/Cyclin D1 (P24385 whole entry partner): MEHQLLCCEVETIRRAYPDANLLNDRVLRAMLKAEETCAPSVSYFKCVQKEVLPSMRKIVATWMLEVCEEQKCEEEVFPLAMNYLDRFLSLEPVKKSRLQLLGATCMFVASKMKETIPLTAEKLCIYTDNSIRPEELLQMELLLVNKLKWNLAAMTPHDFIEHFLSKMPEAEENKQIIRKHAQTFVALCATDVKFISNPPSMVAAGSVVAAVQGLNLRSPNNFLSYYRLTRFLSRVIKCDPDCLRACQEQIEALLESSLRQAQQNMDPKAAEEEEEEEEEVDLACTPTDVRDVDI

Chain of CDK6/Cyclin D3 (Q00534 whole entry): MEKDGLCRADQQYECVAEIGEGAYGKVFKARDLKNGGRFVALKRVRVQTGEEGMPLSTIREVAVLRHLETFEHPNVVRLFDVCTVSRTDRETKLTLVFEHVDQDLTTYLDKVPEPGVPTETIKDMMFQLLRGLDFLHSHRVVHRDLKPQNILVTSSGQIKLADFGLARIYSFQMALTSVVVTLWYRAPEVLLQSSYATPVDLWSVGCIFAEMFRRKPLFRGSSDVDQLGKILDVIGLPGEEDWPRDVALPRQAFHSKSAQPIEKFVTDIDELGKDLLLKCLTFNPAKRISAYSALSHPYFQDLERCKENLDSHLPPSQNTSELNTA
Chain of CDK6/Cyclin D3 (P30281 whole entry partner): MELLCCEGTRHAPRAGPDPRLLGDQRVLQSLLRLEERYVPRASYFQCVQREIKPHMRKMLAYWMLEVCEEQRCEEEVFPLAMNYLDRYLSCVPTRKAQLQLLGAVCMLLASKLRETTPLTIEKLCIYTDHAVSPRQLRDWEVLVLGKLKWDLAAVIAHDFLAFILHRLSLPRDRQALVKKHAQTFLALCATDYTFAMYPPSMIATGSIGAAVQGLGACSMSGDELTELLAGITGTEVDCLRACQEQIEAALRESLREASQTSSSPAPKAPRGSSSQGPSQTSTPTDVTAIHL

For orientation: IC50 means the concentration at which inhibition is half-maximal. With `Cc1c(Cl)c(=O)c2ccc(-c3nc(N[C@@H]4CCOC[C@H]4O)ncc3F)cc2n1C(C)C` [Example 15, 3-chloro-7-(5-fluoro-2-(((3S,4R)-3-hydroxytetrahydro-2H-pyran-4-yl)amino)pyrimidin-4-yl)-1-isopropyl-2-methylquinolin-4(1H)-one], the IC50 at CDK6/Cyclin D3 came out at 255 nM; at CDK4/Cyclin D1, 15 nM.

For the compound `CC(C)n1c(CNc2cnn(C)c2)cc(=O)c2ccc(-c3nc(N[C@@H]4CCOC[C@H]4O)ncc3F)cc21` [Example 78, 7-(5-fluoro-2-(((3S,4R)-3-hydroxytetrahydro-2H-pyran-4-yl)amino)pyrimidin-4-yl)-1-isopropyl-2-(((1-methyl-1H-pyrazol-4-yl)amino)methyl)quinolin-4(1H)-one], the figures for the IC50 on CDK6/Cyclin D3 and at CDK4/Cyclin D1 were 352 nM and 22 nM, respectively.

For the compound `CC(C)n1c(CN2CCCOCC2)cc(=O)c2ccc(-c3nc(N[C@@H]4CCOC[C@H]4O)ncc3F)cc21` [Example 79, 2-((1,4-oxazepan-4-yl)methyl)-7-(5-fluoro-2-(((3S,4R)-3-hydroxytetrahydro-2H-pyran-4-yl)amino)pyrimidin-4-yl)-1-isopropylquinolin-4(1H)-one], the figures for the IC50 at CDK6/Cyclin D3 and at CDK4/Cyclin D1 were 850 nM and 34 nM, respectively.

Turning to `CC(C)n1c(CN2CCC[C@@]3(CCN(C)C3=O)C2)cc(=O)c2ccc(-c3nc(N[C@@H]4CCOC[C@H]4O)ncc3F)cc21` [Example 51, (R)-7-((7-(5-fluoro-2-(((3S,4R)-3-hydroxytetrahydro-2H-pyran-4-yl)amino)pyrimidin-4-yl)-1-isopropyl-4-oxo-1,4-dihydroquinolin-2-yl)methyl)-2-methyl-2,7-diazaspiro[4,5]decan-1-one], the IC50 was determined as 648 nM on CDK6/Cyclin D3 and 54 nM on CDK4/Cyclin D1.

Turning to `CC(C)n1c(CN2CC(O)C2)cc(=O)c2ccc(-c3nc(N[C@@H]4CCOC[C@H]4O)ncc3F)cc21` [Example 30, 7-(5-fluoro-2-(((3S,4R)-3-hydroxytetrahydro-2H-pyran-4-yl)amino)pyrimidin-4-yl)-2-((3-hydroxyazetidin-1-yl)methyl)-1-isopropylquinolin-4(1H)-one], the figures for the IC50 at CDK6/Cyclin D3 and on CDK4/Cyclin D1 were 780 nM and 30 nM, respectively.

Consider `CC(C)n1cc(C(C)(C)O)c(=O)c2ccc(-c3nc(N[C@@H]4CCOC[C@H]4O)ncc3F)cc21` [Example 5, 7-(5-fluoro-2-(((3S,4R)-3-hydroxytetrahydro-2H-pyran-4-yl)amino)pyrimidin-4-yl)-3-(2-hydroxypropan-2-yl)-1-isopropylquinolin-4(1H)-one], for which the IC50 at CDK6/Cyclin D3 was 3240 nM; at CDK4/Cyclin D1, 249 nM.

For `CC(C)n1c(CN2CC[C@@H](F)C2)cc(=O)c2ccc(-c3nc(N[C@@H]4CCOC[C@H]4O)ncc3F)cc21` [Example 49, 7-(5-fluoro-2-(((3S,4R)-3-hydroxytetrahydro-2H-pyran-4-yl)amino)pyrimidin-4-yl)-2-(((R)-3-fluoropyrrolidin-1-yl)methyl)-1-isopropylquinolin-4(1H)-one], the IC50 was 299 nM at CDK6/Cyclin D3 and 8.3 nM at CDK4/Cyclin D1.

For the compound `CC(C)n1c(CN)cc(=O)c2ccc(-c3nc(N[C@@H]4CCOC[C@H]4O)ncc3F)cc21` [Example 35], the IC50 amounted to 276 nM on CDK6/Cyclin D3 and 6.9 nM at CDK4/Cyclin D1.

For `Cc1cc(=O)c2ccc(-c3nc(N[C@@H]4CCOC[C@H]4O)ncc3F)cc2n1C(C)C` [Example 6, 7-(5-fluoro-2-(((3S,4R)-3-hydroxytetrahydro-2H-pyran-4-yl)amino)pyrimidin-4-yl)-1-isopropyl-2-methylquinolin-4(1H)-one], the IC50 at CDK6/Cyclin D3 came to 345 nM; on CDK4/Cyclin D1 it was 15 nM.

As to `Cc1cc(=O)c2ccc(-c3nc(N[C@@H]4CCOC[C@H]4O)ncc3Cl)cc2n1C(C)C` [Example 11, 7-(5-chloro-2-(((3S,4R)-3-hydroxytetrahydro-2H-pyran-4-yl)amino)pyrimidin-4-yl)-1-isopropyl-2-methylquinolin-4(1H)-one], the IC50 stood at 420 nM at CDK6/Cyclin D3 and 28 nM at CDK4/Cyclin D1.

Take `CC(C)n1c(CN2CCOCC23CC3)cc(=O)c2ccc(-c3nc(N[C@@H]4CCOC[C@H]4O)ncc3F)cc21` [Example 73, 2-((7-oxa-4-azaspiro[2.5]octan-4-yl)methyl)-7-(5-fluoro-2-(((3S,4R)-3-hydroxytetrahydro-2H-pyran-4-yl)amino)pyrimidin-4-yl)-1-isopropylquinolin-4(1H)-one]: the IC50 on CDK6/Cyclin D3 amounted to 225 nM; on CDK4/Cyclin D1 it was 7.5 nM.

In the case of `Cc1c(C2CCCN2)n(C(C)C)c2cc(-c3nc(N[C@@H]4CCOC[C@H]4O)ncc3F)ccc2c1=O` (stereo partly drawn) [Example 389, 7-(5-fluoro-2-(((3S,4R)-3-hydroxytetrahydro-2H-pyran-4-yl)amino)pyrimidin-4-yl)-1-isopropyl-3-methyl-2-(pyrrolidin-2-yl)quinolin-4(1H)-one], the 50% inhibitory concentration (IC50) came out at 220 nM on CDK6/Cyclin D3 and 1.6 nM on CDK4/Cyclin D1.

With `CC(C)n1c(CN2CCOC[C@@H]2C)cc(=O)c2ccc(-c3nc(N[C@@H]4CCOC[C@H]4O)ncc3F)cc21` [Example 53, 7-(5-fluoro-2-(((3S,4R)-3-hydroxytetrahydro-2H-pyran-4-yl)amino)pyrimidin-4-yl)-1-isopropyl-2-(((S)-3-methylmorpholino)methyl)quinolin-4(1H)-one], the values for the concentration for half-maximal inhibition (IC50) on CDK6/Cyclin D3 and on CDK4/Cyclin D1 were 165 nM and 11 nM, respectively.

As for `Cc1c(CN2CCOCC23CC3)n(C(C)C)c2cc(-c3nc(N[C@@H]4CCOC[C@H]4O)ncc3F)ccc2c1=O` [Example 117, 2-((7-oxa-4-azaspiro[2.5]octan-4-yl)methyl)-7-(5-fluoro-2-(((3S,4R)-3-hydroxytetrahydro-2H-pyran-4-yl)amino)pyrimidin-4-yl)-1-isopropyl-3-methylquinolin-4(1H)-one], the IC50 at CDK6/Cyclin D3 amounted to 96.9 nM; on CDK4/Cyclin D1 it was 1.9 nM.

In the case of `CC(C)n1c(C(=O)N2CCOCC2)cc(=O)c2ccc(-c3nc(N[C@@H]4CCOC[C@H]4O)ncc3Cl)cc21` [Example 13, 7-(5-chloro-2-(((3S,4R)-3-hydroxytetrahydro-2H-pyran-4-yl)amino)pyrimidin-4-yl)-1-isopropyl-2-(morpholine-4-carbonyl)quinolin-4(1H)-one], the IC50 on CDK6/Cyclin D3 was determined as 539 nM; on CDK4/Cyclin D1, 93 nM.

With `Cc1c(CN2[C@H](C)COC[C@@H]2C)n(C(C)C)c2cc(-c3nc(N[C@@H]4CCOC[C@H]4O)ncc3F)ccc2c1=O` [Example 72, 2-(((3R,5S)-3,5-dimethylmorpholino)methyl)-7-(5-fluoro-2-(((3S,4R)-3-hydroxytetrahydro-2H-pyran-4-yl)amino)pyrimidin-4-yl)-1-isopropyl-3-methylquinolin-4(1H)-one], the IC50 amounted to 21.6 nM on CDK6/Cyclin D3 and 0.8 nM at CDK4/Cyclin D1.

As to `CC(C)n1c(CN2CCC(F)(F)C2)cc(=O)c2ccc(-c3nc(N[C@@H]4CCOC[C@H]4O)ncc3F)cc21` [Example 80, 2-((3,3-difluoropyrrolidin-1-yl)methyl)-7-(5-fluoro-2-(((3S,4R)-3-hydroxytetrahydro-2H-pyran-4-yl)amino)pyrimidin-4-yl)-1-isopropylquinolin-4(1H)-one], the IC50 on CDK6/Cyclin D3 was 616 nM; on CDK4/Cyclin D1, 22 nM.

With `CC(C)n1c(CN2CCC(O)CC2)cc(=O)c2ccc(-c3nc(N[C@@H]4CCOC[C@H]4O)ncc3F)cc21` [Example 39, 7-(5-fluoro-2-(((3S,4R)-3-hydroxytetrahydro-2H-pyran-4-yl)amino)pyrimidin-4-yl)-2-((4-hydroxypiperidin-1-yl)methyl)-1-isopropylquinolin-4(1H)-one], the IC50 at CDK6/Cyclin D3 worked out at 744 nM; on CDK4/Cyclin D1, 24 nM.

Take `Cc1c(CN2[C@H](C)COC[C@H]2C)n(C(C)C)c2cc(-c3nc(N[C@@H]4CCOC[C@H]4O)ncc3F)ccc2c1=O` [Example 71, 2-(((3R,5R)-3,5-dimethylmorpholino)methyl)-7-(5-fluoro-2-(((3S,4R)-3-hydroxytetrahydro-2H-pyran-4-yl)amino)pyrimidin-4-yl)-1-isopropyl-3-methylquinolin-4(1H)-one]: the half-maximal inhibitory concentration (IC50) at CDK6/Cyclin D3 came out at 140 nM; at CDK4/Cyclin D1, 2.7 nM.

Regarding `COc1cn(C(C)C)c2cc(-c3nc(N[C@@H]4CCOC[C@H]4O)ncc3F)ccc2c1=O` [Example 8, 7-(5-fluoro-2-(((3S,4R)-3-hydroxytetrahydro-2H-pyran-4-yl)amino)pyrimidin-4-yl)-1-isopropyl-3-methoxyquinolin-4(11H)-one], the results for the IC50 on CDK6/Cyclin D3 and on CDK4/Cyclin D1 were 1780 nM and 162 nM, respectively.
